Patent US9890194B2, “Epitope and its use” (W[…] BADAŃEIT+ SP. Z O.O., priority 2012, dated 2018)

Experiments:
[1] = system: antibodies present in umbilical blood sera 1H-9H (IgG); experiment: ELISA of peptides synthesized on HPM-pins with a mixture of 9 umbilical blood sera (1H-9H); assay type: binding, human; conditions: mixture of umbilical sera 1H-9H; 29 overlapping twelve amino-acid peptides of Table 1 on HPM-pins
Excerpt: Peptides representing the bioinformatically predicted regions were synthesized using an NCP kit with 96 hydroxypropylmethacrylate (HPM) pins (MIMOTOPES, Clayton, Victoria, Australia) according to the manufacturer's specifications (Carter, J.M. (1994) An epitope mapping of a protein using the Geysen (PEPSCAN) procedure. Methods Mol Biol 36: 207-223). As the sixth, control, peptide we synthesised a fragment corresponding to the N-terminal region of ompC (AEVYNKDGNKLD-pin (SEQ ID NO: 12)).
After the completed synthesis, we performed initial reactivity tests for the individual peptides, using a standard ELISA test. The ELISA was performed in a mixture of 9 different umbilical blood sera (1H-9H) according to the following scheme: • a. Pin equilibration in TBS-T. • b. Blocking of free sites on the pins using 1% BSA in TBS-T • c. Incubation with umbilical sera at a dilution of 1:500 in a solution of 1% BSA in TBS-T buffer • d. Rinsing with TBS-T buffer • e. Incubation with secondary antibodies, conjugated Anti-Human IgG (Fc)-AP (Promega) • f. Rinsing with TBS-T • g. Reaction of AP with the substrate pNPP (p-Nitrophenyl Phosphate, Sigma) and absorbance measurement at 405 nm • h. Dissociation of proteins/antibodies from peptides synthesized on HPM-pins. […]

[2] = system: antibodies present in human umbilical blood sera; experiment: Immunological activity of truncated and substituted peptides derived from RYDERY with umbilical serum; assay type: binding; conditions: FIG. 4
Excerpt: Unexpectedly it was shown that the immunological activity of the RYDERY peptide (SEQ ID NO: 2) is not affected by the removal of amino-acids in positions P+1 and P+2, nor in P−1, […]. The removal of amino-acids in positions P1 or P6, and in the subsequent positions (P2, P3 or P5, P4) caused a complete loss of activity. Likewise, a loss of immunological activity was caused by an exchange of residues at positions P1, P2 and P5. The latter amino-acids must remain unchanged in the final form of the peptide vaccine. Positions P3, P4 and P6 are less restrictive. In this case native amino-acids may be substituted by a series of other residues without any significant loss of immunological activity (FIG. 4). This property of the epitope facilitates the synthesis of a peptide less susceptible to enzymatic hydrolysis, and a higher antigenicity.
Furthermore, it was unexpectedly shown that an alteration of amino-acid D or E for Q yields an increased reactivity with umbilical serum (FIG. 5).

Substance | binding of antibodies in umbilical sera by loop V peptides [1] | immunological activity of peptides derived from RYDERY (removal or exchange of residues) [2]
RYDERY | shortest active portion of the epitope | 
YDERY |  | no activity
